Data on 16 compounds can be found in PMC3062745 (International journal for parasitology, 2011).

Like-named read-outs stand apart in the source and are kept apart here.

For data set [1], the target named is T1, Leishmania mexicana arginase (LmARG) (Leishmania mexicana, UniProt Q6TUJ5). Briefly: Inhibitor profile of recombinant LmARG. In kind it is biochemical. The settings on record: for inhibition of LmARG / selective inhibition: preference for LmARG over HsARGI / block of LmARG activity (in words): 40 mM compound; for inhibition of LmARG / block of LmARG activity (in words): 40 mM L-arginine substrate; for selective inhibition: preference for LmARG over HsARGI: 40 mM L-arginine, comparison of the two enzymes; for Type of Inhibition: Dixon plot analysis, or assumed where Ki was calculated from panel data; for Ki: Dixon plot analysis; for inhibition: read-out: inhibition of LmARG.

Data set [2] deals with T2, human ARGI (HsARGI) (Homo sapiens, UniProt P05089).
T2 sequence (P05089 1-322): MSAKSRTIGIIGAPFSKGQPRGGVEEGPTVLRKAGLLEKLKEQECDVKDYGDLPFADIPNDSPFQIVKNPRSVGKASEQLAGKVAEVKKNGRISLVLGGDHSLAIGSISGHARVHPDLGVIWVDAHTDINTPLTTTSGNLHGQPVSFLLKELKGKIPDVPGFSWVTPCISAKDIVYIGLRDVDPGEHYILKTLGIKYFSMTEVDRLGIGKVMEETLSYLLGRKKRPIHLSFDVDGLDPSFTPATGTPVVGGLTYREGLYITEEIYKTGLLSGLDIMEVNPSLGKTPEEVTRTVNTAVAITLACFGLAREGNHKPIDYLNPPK
In words: Inhibitor profile of recombinant HsARGI. The following applies: for selective inhibition: preference for HsARGI over LmARG / block of HsARGI activity (in words) / inhibition of HsARGI: 40 mM compound; for selective inhibition: preference for HsARGI over LmARG: 40 mM L-arginine, comparison of the two enzymes; for block of HsARGI activity (in words) / inhibition of HsARGI: 40 mM L-arginine substrate; for inhibition at 40000 µM: read-out: inhibition of HsARGI. In kind it is biochemical.

Data set [3] has as its target T2, human ARGI (HsARGI). Briefly: HsARGI kinetic parameters and substrate specificity. The following applies: 50 mM, no L-arginine, 30 min. It is filed as biochemical.
Data set [4] concerns the target T1, Leishmania mexicana arginase (LmARG). Briefly: LmARG kinetic parameters and substrate specificity. The following applies: 50 mM, no L-arginine, 30 min; data not shown.
Data set [5] concerns Leishmania mexicana promastigotes. Briefly: Parasite proliferation assay. In kind it is cell-based. The following applies: read-out: EC50 (concentration that inhibited growth by 50%); L. mexicana promastigotes, 5 days, alamarBlue; data not shown.
The next data set concerns L. major promastigotes. The settings on record: read-out: EC50 against L. major promastigotes; ref Reguera et al., 2009; cited from earlier work.
In data set [6] the test system is intact L. major promastigotes. The settings on record: ref Kropf et al., 2005; cited from earlier work.
Data set [7] deals with T1, Leishmania mexicana arginase (LmARG). It is filed as biochemical. The settings on record: co-activation with manganese and zinc; data not shown.
A further data set deals with N=C(N)NCCC[C@H](N)C(=O)O. Briefly: purified protein, by the assay type. The following applies: other: non-linear regression, L-arginine 7.8 – 50 mM; pH 9.5; 37.0 °C.

In the case of `NC(CCS)C(=O)O` (racemic) [DL-homocysteine], in data set [1], the “inhibition of LmARG” value is given as more than 50% and the “selective inhibition: preference for LmARG over HsARGI” value (shortened to “selective inhibition … over HsARGI”) was “greater potency toward LmARG”.

Regarding `Nc1nc2nc(N)[nH]c2c(=O)[nH]1` [8-aminoguanine], the “selective inhibition: preference for HsARGI over LmARG” value (“selective inhibition … over LmARG” below) on human ARGI (HsARGI) [2] is on record as “preferentially inhibited the HsARGI activity”. In data set [1], the “selective inhibition … over HsARGI” value is listed as “greater potency toward LmARG”; the “Type of Inhibition” value is given as “Uncompetitive”; the inhibition (in general, the relative decrease from the control value, in per cent) was more than 50%. Besides, the Ki (commonly the equilibrium dissociation constant of an inhibitor or competing ligand from its target) in [1] (Ki vs. LmARG) was less than 2000 µM.

In the case of `N[C@@H](CCCCB(O)O)C(=O)O` [ABH, 2(S)-amino-6-boronohexanoic acid], at human ARGI (HsARGI) [2], the inhibition constant Ki came to 3.5 µM, the “block of HsARGI activity (in words)” value is reported as “completely blocked” and the inhibition at 40000 µM was more than 50%. Also, in [1], the “block of LmARG activity (in words)” value is “completely blocked”, the “Type of Inhibition” value is recorded as “Competitive” and the inhibition is more than 50%. Further, the Ki in data set [1] (Ki vs. LmARG) turned out to be 1.3 µM.

Consider `N[C@@H](CSCCB(O)O)C(=O)O` [BEC, S-(2-boronoethyl)-L-cysteine], for which, on human ARGI (HsARGI) [2], the Ki is 14 µM and the “block of HsARGI activity (in words)” value was “completely blocked”. In data set [1], the “block of LmARG activity (in words)” value is listed as “completely blocked”, the “Type of Inhibition” value was “Competitive” and the inhibition was more than 50%. Besides, in data set [1] (Ki vs. LmARG), the Ki is approximately 10 µM.

For `NC(N)=NCCC[C@@H](N)C(=O)O` [D-arginine], on human ARGI (HsARGI) [3], the “activity as substrate of HsARGI” value is “no activity”. For the same compound, the “activity as substrate of LmARG” value in [4] was “did not recognize”.

For the compound `N[C@@H](CS)C(=O)O` [L-cysteine], the Ki at human ARGI (HsARGI) [2] was more than 30000 µM. Further, in data set [1], the “selective inhibition … over HsARGI” value was “greater potency toward LmARG”, the “Type of Inhibition” value is reported as “Competitive” and the inhibition is more than 50%. Besides, the Ki in data set [1] (Ki vs. LmARG) is 11000 µM.

In the case of `CC(C)C[C@H](N)C(=O)O` [L-leucine], on human ARGI (HsARGI) [2], the “selective inhibition … over LmARG” value is on record as “preferentially inhibited the HsARGI activity” and the inhibition at 40000 µM was more than 50%.

As for `NCCCC[C@H](N)C(=O)O` [L-lysine], at human ARGI (HsARGI) [2], the “selective inhibition … over LmARG” value was “preferentially inhibited the HsARGI activity” and the inhibition at 40000 µM was more than 50%.

For `NCCC[C@H](N)C(=O)O` [L-ornithine], at human ARGI (HsARGI) [2], the “selective inhibition … over LmARG” value is reported as “preferentially inhibited the HsARGI activity” and the inhibition at 40000 µM is more than 50%.

Regarding `N=C(NO)NCCC[C@H](N)C(=O)O` [NOHA, N^ω-hydroxy-L-arginine], on human ARGI (HsARGI) [2], the “block of HsARGI activity (in words)” value is on record as “completely blocked” and the “inhibition of HsARGI” value is given as more than 50%. Further, the EC50 in data set [5] amounted to 6000 µM. The EC50 with L. major promastigotes is 40 µM. For the same compound, in [1], the “block of LmARG activity (in words)” value is “completely blocked”, the “inhibition of LmARG” value was more than 50% and the “Type of Inhibition” value was “Competitive”. In addition, in [1] (read-out: Ki vs. LmARG), the Ki turned out to be 85 µM.

For the compound `NCCCCN=C(N)N` [agmatine], at human ARGI (HsARGI) [3], the “activity as substrate of HsARGI” value is given as “no activity”. Also, the “activity as substrate of LmARG” value in data set [4] is listed as “did not recognize”.

As to `OB(O)O` [boric acid], at human ARGI (HsARGI) [2], the “inhibition of HsARGI” value was more than 50% and the “selective inhibition … over LmARG” value is “preferentially inhibited the HsARGI activity”. In addition, in data set [1], the “inhibition of LmARG” value was more than 50%.

As to `N=C(NO)NCC[C@H](N)C(=O)O` [nor-NOHA, N^ω-hydroxy-nor-L-arginine], at human ARGI (HsARGI) [2], the “block of HsARGI activity (in words)” value was “completely blocked” and the inhibition at 40000 µM was more than 50%. In [1], the “block of LmARG activity (in words)” value is “completely blocked”, the “Type of Inhibition” value is on record as “Competitive” and the inhibition was more than 50%. Further, the “inhibition of conversion of arginine to ornithine by intact promastigotes” value in data set [6] is recorded as “does not inhibit”.

With `N[C@@H](CCC(=O)N[C@H]1CSSC[C@H](NC(=O)CC[C@H](N)C(=O)O)C(=O)NCC(=O)NCCCNCCCCNC(=O)CNC1=O)C(=O)O` [trypanothione], on human ARGI (HsARGI) [2], the “inhibition of HsARGI” value is listed as more than 50% and the “selective inhibition … over LmARG” value is recorded as “preferentially inhibited the HsARGI activity”. Also, in data set [1], the “inhibition of LmARG” value is more than 50% and the “Type of Inhibition” value is recorded as “Uncompetitive”. Further, the Ki in data set [1] (read-out: Ki vs. LmARG) was less than 5000 µM.

With `[Cl-].[Cl-].[Zn+2]` [zinc, ZnCl2], the “LmARG activity on co-activation with manganese” value in data set [7] is reported as “reduced activity to zero”.

Regarding “Leishmania mexicana arginase (LmARG) (Leishmania mexicana)”, the Km (in general, the substrate concentration at which the rate is half of its maximum) in the data set with N=C(N)NCCC[C@H](N)C(=O)O came to 25 ± 4 mM.
